Experimental data published in ChEMBL document CHEMBL3868582, “Discovery, pharmacology, and clinical profile of omadacycline, a novel aminomethylcycline antibiotic” (Bioorg Med Chem, 2016).
Converted amounts (≈) assume the structure as drawn. One block for each compound: values may come before it.

How the values were obtained:
[1] = Volume of distribution in human at 100 mg, iv or 300 mg, po; format: ADME, organism-based; details: in vivo
[2] = Cmax in human at 100 mg, iv administered as infusion; format: ADME, organism-based; parameters: dose 100 mg, route intravenous; details: in vivo
[3] = Terminal half life in human at 100 mg, iv or 300 mg, po; details: in vivo
[4] = Cmax in human at 300 mg, po; format: ADME; parameters: dose 300 mg, route oral; details: in vivo
[5] = AUC(0 to 24 hrs) in human at 100 mg, iv; format: ADME; parameters: dose 100 mg, time < 24 hr, route intravenous; details: in vivo
[6] = Oral bioavailability in human 300 mg; format: ADME, organism-based; details: in vivo
[7] = Protein binding in human plasma at 0.1 to 10 ug/ml; format: ADME, cell-free; details: read-out: PPB (converted)
[8] = Systemic clearance in human at 100 mg, iv or 300 mg, po; format: ADME, organism-based; details: in vivo
[9] = AUC(0 to 24 hrs) in human at 300 mg, po; format: ADME; parameters: time < 24 hr, dose 300 mg, route oral; details: in vivo
[10] = Fraction absorbed in human urine at 36.6 uCi, po administered as single dose; format: ADME, organism-based; details: in vivo
[11] = Drug excretion in human urine at 36.6 uCi, po administered as single dose; format: ADME, organism-based; details: in vivo
[12] = Drug excretion in human feces at 36.6 uCi, po administered as single dose; format: ADME, organism-based; details: in vivo
OATP1B1 = OATP1B1 (Homo sapiens, UniProt Q9Y6L6); assay: Inhibition of OATP1B1 (unknown origin) in HEK293 cells at 100 uM; format: cell-based; details: HEK293 cells expressing OATP1B1
OAT1 (SLC22A6) = OAT1 (SLC22A6) (Homo sapiens, UniProt Q4U2R8); assay: Inhibition of human OAT1 expressed in HEK293 cells at 25 uM; format: cell-based
OATP1B3 = OATP1B3 (Homo sapiens, UniProt Q9NPD5); assay: Inhibition of OATP1B3 (unknown origin) in HEK293 cells at 100 uM; format: cell-based; details: HEK293 cells expressing OATP1B3
Streptococcus pneumoniae [13] = assay: Antibacterial activity against Streptococcus pneumoniae PBS1399; format: functional
Streptococcus pneumoniae [14] = assay: Antibacterial activity against Streptococcus pneumoniae PBS1399 infected in mouse assessed as protection against bacterial infection by measuring mouse survival administered intravenously as single dose after 2 hrs of infection measured on day 7; format: functional; details: PBS1399, iv, read-out: PD50
Haemophilus influenzae [15] = assay: Antibacterial activity against Haemophilus influenzae PBS981 infected in CD-1 mouse assessed as reduction in bacterial load in lungs administered intravenously as single dose after 2 hrs of infection measured after 24 hrs post treatment; format: functional; details: PBS981, iv
Haemophilus influenzae [16] = assay: Antibacterial activity against Haemophilus influenzae PBS981; format: functional
Clostridioides difficile = assay: Antibacterial activity against Clostridium difficile infected in hamster model assessed as median survival time; format: functional
[17] = Protein binding in human plasma; format: ADME, cell-free; details: read-out: PPB
[18] = AUC(0 to 24 hrs) in human at 100 mg, po q12h; format: ADME, organism-based; parameters: time < 24 hr, dose 100 mg, route oral; details: in vivo
[19] = Oral bioavailability in human at 100 mg administered q12h; format: ADME, organism-based; details: in vivo
[20] = Terminal half life in human at 1.5 mg/kg, iv q24h or 100 mg, po q12h; format: ADME, organism-based; details: in vivo, read-out: beta t1/2
[21] = AUC(0 to 24 hrs) in human at 1.5 mg/kg, iv q24h; format: ADME, organism-based; parameters: dose 1.5 mg/kg, time < 24 hr, route intravenous; details: in vivo
[22] = Systemic clearance in human at 1.5 mg/kg, iv q24h or 100 mg, po q12h; format: ADME, organism-based; details: in vivo
[23] = Cmax in human at 100 mg, po q12h; format: ADME, organism-based; parameters: dose 100 mg, route oral; details: in vivo
[24] = Cmax in human at 1.5 mg/kg, iv q24h; format: ADME, organism-based; parameters: dose 1.5 mg/kg, route intravenous; details: in vivo
[25] = Tmax in human at 300 mg, po; format: ADME; details: in vivo
[26] = Half life in human at 300 mg, po; details: in vivo
[27] = AUC(0 to 24 hrs) in human at 50 mg, iv q12h; format: ADME, organism-based; parameters: dose 50 mg, time < 24 hr, route intravenous; details: in vivo
Staphylococcus aureus [28] = assay: Antibacterial activity against Staphylococcus aureus USA400 in mouse thigh wound infection model assessed as reduction in bacterial load administered intravenously as single dose after 2 hrs of infection measured after 24 hrs post treatment; format: functional; details: USA400, iv
[29] = Cmax in human at 50 mg, iv q12h; format: ADME, organism-based; parameters: dose 50 mg, route intravenous; details: in vivo
Staphylococcus aureus [30] = assay: Antibacterial activity against Staphylococcus aureus USA300 in mouse thigh wound infection model assessed as reduction in bacterial load administered intravenously as single dose after 2 hrs of infection measured after 24 hrs post treatment; format: functional; details: USA300, iv
Staphylococcus aureus [31] = assay: Antibacterial activity against Staphylococcus aureus USA400; format: functional
[32] = Terminal half life in human at 50 mg, iv q12h; format: ADME, organism-based; details: in vivo, read-out: beta t1/2
Staphylococcus aureus [33] = assay: Antibacterial activity against Staphylococcus aureus USA300; format: functional
[34] = Systemic clearance in human at 50 mg, iv q12h; format: ADME, organism-based; details: in vivo

Chain of OATP1B3 (Q9NPD5 whole entry): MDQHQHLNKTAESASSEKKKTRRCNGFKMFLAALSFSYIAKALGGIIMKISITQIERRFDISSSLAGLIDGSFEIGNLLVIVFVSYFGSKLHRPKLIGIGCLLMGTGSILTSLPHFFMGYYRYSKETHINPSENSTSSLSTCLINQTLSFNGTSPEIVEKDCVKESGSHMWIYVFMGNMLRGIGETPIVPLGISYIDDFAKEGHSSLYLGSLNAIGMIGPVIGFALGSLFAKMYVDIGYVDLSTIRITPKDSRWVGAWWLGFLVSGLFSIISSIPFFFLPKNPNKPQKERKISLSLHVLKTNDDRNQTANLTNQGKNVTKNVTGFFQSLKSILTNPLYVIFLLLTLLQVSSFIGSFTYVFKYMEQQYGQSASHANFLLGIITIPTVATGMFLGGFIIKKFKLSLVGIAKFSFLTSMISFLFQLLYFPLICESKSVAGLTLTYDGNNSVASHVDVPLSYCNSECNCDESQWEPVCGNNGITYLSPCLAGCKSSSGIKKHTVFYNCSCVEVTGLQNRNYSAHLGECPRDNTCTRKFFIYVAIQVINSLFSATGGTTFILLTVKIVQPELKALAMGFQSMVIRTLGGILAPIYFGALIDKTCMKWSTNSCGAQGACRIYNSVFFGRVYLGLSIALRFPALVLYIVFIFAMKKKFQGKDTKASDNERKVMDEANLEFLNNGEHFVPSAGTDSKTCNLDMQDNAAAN
Chain of OATP1B1 (Q9Y6L6 whole entry): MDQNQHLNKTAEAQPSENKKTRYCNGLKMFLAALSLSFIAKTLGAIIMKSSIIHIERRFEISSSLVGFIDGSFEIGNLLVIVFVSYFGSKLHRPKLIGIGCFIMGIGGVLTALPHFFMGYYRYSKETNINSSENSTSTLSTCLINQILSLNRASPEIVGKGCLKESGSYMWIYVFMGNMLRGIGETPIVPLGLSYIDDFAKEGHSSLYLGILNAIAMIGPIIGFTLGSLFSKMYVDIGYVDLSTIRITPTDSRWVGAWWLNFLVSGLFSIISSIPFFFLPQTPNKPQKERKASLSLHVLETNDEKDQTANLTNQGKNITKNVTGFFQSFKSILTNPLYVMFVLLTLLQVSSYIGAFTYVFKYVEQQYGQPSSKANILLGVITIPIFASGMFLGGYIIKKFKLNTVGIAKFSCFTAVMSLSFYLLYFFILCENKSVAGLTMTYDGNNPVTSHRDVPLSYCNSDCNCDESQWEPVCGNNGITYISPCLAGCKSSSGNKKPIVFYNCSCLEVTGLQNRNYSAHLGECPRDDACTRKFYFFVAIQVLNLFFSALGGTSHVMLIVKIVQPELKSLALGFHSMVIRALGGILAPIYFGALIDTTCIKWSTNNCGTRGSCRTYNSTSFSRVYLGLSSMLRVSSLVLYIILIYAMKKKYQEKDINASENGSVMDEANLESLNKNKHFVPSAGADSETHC
Chain of OAT1 (SLC22A6) (Q4U2R8 whole entry): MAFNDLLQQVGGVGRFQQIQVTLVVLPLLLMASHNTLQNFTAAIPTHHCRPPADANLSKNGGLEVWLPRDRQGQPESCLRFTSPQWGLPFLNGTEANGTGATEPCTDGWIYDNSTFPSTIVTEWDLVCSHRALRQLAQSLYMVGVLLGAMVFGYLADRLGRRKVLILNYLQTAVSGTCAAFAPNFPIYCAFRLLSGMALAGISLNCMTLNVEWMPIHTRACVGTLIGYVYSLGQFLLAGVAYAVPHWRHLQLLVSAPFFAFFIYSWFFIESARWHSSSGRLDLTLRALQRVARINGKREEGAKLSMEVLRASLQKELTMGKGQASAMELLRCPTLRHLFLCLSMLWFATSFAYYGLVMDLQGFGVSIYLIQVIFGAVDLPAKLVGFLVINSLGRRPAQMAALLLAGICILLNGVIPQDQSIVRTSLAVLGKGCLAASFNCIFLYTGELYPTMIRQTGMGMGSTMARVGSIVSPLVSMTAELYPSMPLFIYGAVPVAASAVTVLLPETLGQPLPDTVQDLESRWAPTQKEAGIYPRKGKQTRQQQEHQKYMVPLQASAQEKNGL

SMILES: CN(C)c1cc(CNCC(C)(C)C)c(O)c2c1C[C@H]1C[C@H]3[C@H](N(C)C)C(O)=C(C(N)=O)C(=O)[C@@]3(O)C(O)=C1C2=O.Cl
Vd [1]: 333 to 640 L
Cmax [2]: 1800 ng/mL
half-life [3]: 17 h
Cmax [4]: 700 ng/mL
AUC [5]: 8800 ng·h/mL
bioavailability [6]: 34.5%
fraction unbound [7]: 0.79
CL [8]: 17.1 L/h
AUC(0-t) at 24 h [9]: 5900 ng·h/mL

Fabs [10]: 40%
Drug excretion [11]: 14.4 %ID
Drug excretion [12]: 81.1 %ID
inhibition at 100 µM (OATP1B1): 10.1%
inhibition at 25 µM (OAT1 (SLC22A6)): 32.1%
inhibition at 100 µM (OATP1B3): 10.1%
SMILES: CN(C)c1cc([14CH2]NCC(C)(C)C)c(O)c2c1C[C@H]1C[C@H]3[C@H](N(C)C)C(O)=C(C(N)=O)C(=O)[C@@]3(O)C(O)=C1C2=O

Drug excretion [11]: 14.4 %ID
SMILES: CN(C)c1cc([14CH2]NCC(C)(C)C)c(O)c2c1C[C@H]1C[C@H]3[C@@H](N(C)C)C(O)=C(C(N)=O)C(=O)[C@@]3(O)C(O)=C1C2=O

SMILES: CC[C@H]1OC(=O)[C@H](C)[C@@H](O[C@H]2C[C@@](C)(OC)[C@@H](O)[C@H](C)O2)[C@H](C)[C@@H](O[C@@H]2O[C@H](C)C[C@H](N(C)C)[C@H]2O)[C@](C)(O)C[C@@H](C)CN(C)[C@H](C)[C@@H](O)[C@]1(C)O [AZITHROMYCIN]
MIC (Streptococcus pneumoniae [13]): 0.03 µg/mL (≈ 0.0401 µM)
ED50 (Streptococcus pneumoniae [14]): 3.31 mg/kg

SMILES: CO/N=C(\C(=O)N[C@@H]1C(=O)N2C(C(=O)O)=C(CSc3nc(=O)c(O)nn3C)CS[C@H]12)c1csc(N)n1 [CEFTRIAXONE]
MIC (Streptococcus pneumoniae [13]): 0.015 µg/mL (≈ 0.027 µM)
ED50 (Haemophilus influenzae [15]): 0.1 mg/kg
ED50 (Streptococcus pneumoniae [14]): 0.37 mg/kg
MIC (Haemophilus influenzae [16]): < 0.06 µg/mL

MIC (Haemophilus influenzae [16]): < 0.06 µg/mL
SMILES: O=C(O)c1cn(C2CC2)c2cc(N3CCNCC3)c(F)cc2c1=O [CIPROFLOXACIN]
ED50 (Haemophilus influenzae [15]): 1.16 mg/kg

SMILES: CCC[C@@H]1C[C@@H](C(=O)N[C@@H]([C@H]2O[C@H](SC)[C@H](O)[C@@H](O)[C@H]2O)[C@H](C)Cl)N(C)C1 [CLINDAMYCIN]
MST (Clostridioides difficile): 4 days

SMILES: CCCCCCCCCC(=O)N[C@@H](Cc1c[nH]c2ccccc12)C(=O)N[C@@H](CC(N)=O)C(=O)N[C@@H](CC(=O)O)C(=O)N[C@@H]1C(=O)NCC(=O)N[C@@H](CCCN)C(=O)N[C@@H](CC(=O)O)C(=O)N[C@H](C)C(=O)N[C@@H](CC(=O)O)C(=O)NCC(=O)N[C@H](CO)C(=O)N[C@@H]([C@H](C)CC(=O)O)C(=O)N[C@@H](CC(=O)c2ccccc2N)C(=O)O[C@@H]1C [DAPTOMYCIN]
MIC (Streptococcus pneumoniae [13]): 0.25 µg/mL (≈ 0.154 µM)
ED50 (Streptococcus pneumoniae [14]): > 100 mg/kg

SMILES: C[C@H]1c2cccc(O)c2C(=O)C2=C(O)[C@]3(O)C(=O)C(C(N)=O)=C(O)[C@@H](N(C)C)[C@@H]3[C@@H](O)[C@@H]21.O [DOXYCYCLINE]
MIC (Streptococcus pneumoniae [13]): 0.125 µg/mL
ED50 (Streptococcus pneumoniae [14]): 10.3 mg/kg

fraction unbound [17]: 0.13 to 0.21
AUC at 24 h [18]: 3100 ng·h/mL
bioavailability [19]: 28%
half-life [20]: 10 to 14 h
AUC at 24 h [21]: 7900 ng·h/mL
clearance [22]: 297 mL/min
Cmax [23]: 160 ng/mL
Cmax [24]: 1900 ng/mL
SMILES: CN(C)[C@@H]1C(O)=C(C(N)=O)C(=O)[C@@]2(O)C(O)=C3C(=O)c4c(O)c(NC(=O)CN5CCCC5)cc(F)c4C[C@H]3C[C@@H]12 [ERAVACYCLINE]

SMILES: C[C@H]1COc2c(N3CCN(C)CC3)c(F)cc3c(=O)c(C(=O)O)cn1c23.C[C@H]1COc2c(N3CCN(C)CC3)c(F)cc3c(=O)c(C(=O)O)cn1c23.O [LEVOFLOXACIN]
ED50 (Haemophilus influenzae [15]): 2.4 mg/kg
ED50 (Streptococcus pneumoniae [14]): > 18 mg/kg
MIC (Haemophilus influenzae [16]): < 0.06 µg/mL

SMILES: CC(=O)NC[C@H]1CN(c2ccc(N3CCOCC3)c(F)c2)C(=O)O1 [LINEZOLID]
ED50 (Streptococcus pneumoniae [14]): 38.8 mg/kg

SMILES: CN(C)c1ccc(O)c2c1C[C@H]1C[C@H]3[C@H](N(C)C)C(O)=C(C(N)=O)C(=O)[C@@]3(O)C(O)=C1C2=O [MINOCYCLINE]
MIC (Streptococcus pneumoniae [13]): 0.25 µg/mL (≈ 0.546 µM)
ED50 (Streptococcus pneumoniae [14]): 3.44 mg/kg

SMILES: CN(C)c1cc(CNCC(C)(C)C)c(O)c2c1C[C@H]1C[C@H]3[C@H](N(C)C)C(O)=C(C(N)=O)C(=O)[C@@]3(O)C(O)=C1C2=O.Cc1ccc(S(=O)(=O)O)cc1 [OMADACYCLINE TOSYLATE]
Tmax [25]: 3 h
half-life [26]: 17 h
Cmax [4]: 540 ng/mL
bioavailability [6]: 34.5%

SMILES: CN(C)c1cc(NC(=O)CNC(C)(C)C)c(O)c2c1C[C@H]1C[C@H]3[C@H](N(C)C)C(O)=C(C(N)=O)C(=O)[C@@]3(O)C(O)=C1C2=O [TIGECYCLINE]
MIC (Streptococcus pneumoniae [13]): 0.125 µg/mL (≈ 0.213 µM)
AUC [27]: 4700 ng·h/mL
ED50 (Staphylococcus aureus [28]): 0.46 mg/kg
fraction unbound [17]: 0.13 to 0.31
Cmax [29]: 870 ng/mL
ED50 (Staphylococcus aureus [30]): 0.45 mg/kg
MIC (Staphylococcus aureus [31]): 0.06 µg/mL (≈ 0.102 µM)
ED50 (Haemophilus influenzae [15]): 2.31 mg/kg
half-life [32]: 37 to 66 h
MIC (Staphylococcus aureus [33]): 0.125 µg/mL (≈ 0.213 µM)
ED50 (Streptococcus pneumoniae [14]): 0.91 mg/kg
MIC (Haemophilus influenzae [16]): 0.25 µg/mL (≈ 0.427 µM)
CL [34]: 23.8 L/h

SMILES: CN[C@H](CC(C)C)C(=O)N[C@H]1C(=O)N[C@@H](CC(N)=O)C(=O)N[C@H]2C(=O)N[C@H]3C(=O)N[C@H](C(=O)N[C@H](C(=O)O)c4cc(O)cc(O)c4-c4cc3ccc4O)[C@H](O)c3ccc(c(Cl)c3)Oc3cc2cc(c3O[C@@H]2O[C@H](CO)[C@@H](O)[C@H](O)[C@H]2O[C@H]2C[C@](C)(N)[C@H](O)[C@H](C)O2)Oc2ccc(cc2Cl)[C@H]1O [VANCOMYCIN]
MIC (Streptococcus pneumoniae [13]): 0.5 µg/mL (≈ 0.345 µM)
ED50 (Streptococcus pneumoniae [14]): 3.3 mg/kg
MST (Clostridioides difficile): 2 days
